Measured values: EP4759807A1, “PROTEOLYSIS TARGETING CHIMERA COMPOUND FOR DEGRADING IRAK4 AND USE THEREOF” (Shenzhen Zhongge Biological Technology Co., Ltd., priority 2023, dated 2025)
Counter-ions that a name gives are not always drawn. Like-named read-outs stand apart in the source and are kept apart here.

Target: T1, IRAK4 (Homo sapiens, UniProt Q9NWZ3)
T1 sequence (Q9NWZ3 1-460): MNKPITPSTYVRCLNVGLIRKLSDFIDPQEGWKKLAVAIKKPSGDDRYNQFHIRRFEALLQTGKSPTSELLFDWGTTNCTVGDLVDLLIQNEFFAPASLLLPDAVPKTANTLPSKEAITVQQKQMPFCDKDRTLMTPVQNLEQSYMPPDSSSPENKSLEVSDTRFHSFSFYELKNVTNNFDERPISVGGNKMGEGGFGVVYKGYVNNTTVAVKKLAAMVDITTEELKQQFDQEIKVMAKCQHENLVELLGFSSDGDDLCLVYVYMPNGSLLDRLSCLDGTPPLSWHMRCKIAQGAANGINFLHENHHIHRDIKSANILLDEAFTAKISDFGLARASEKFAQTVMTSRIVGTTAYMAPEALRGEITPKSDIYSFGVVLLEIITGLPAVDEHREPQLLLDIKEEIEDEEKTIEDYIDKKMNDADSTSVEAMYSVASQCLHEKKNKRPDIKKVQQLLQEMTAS
Assay: Hibit fluorescence detection of proteolysis (IRAK4-HiBiT in HEK293T cells)
Format: cell-based
Design: host or cells: HEK293T (ATCC)
Settings: for Dmax: HEK-293T; for DC50: IRAK4-HiBiT, HEK293T cells, 24 h
Outline: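 Degradation read-out: luminescence from lytic HiBiT detection (15 min, room temperature) after 24 h compound exposure (37 °C, 5% CO2) of HEK293T cells transiently expressing IRAK4 fused to a HiBiT tag. Data fitted to a bell-shaped four-parameter model giving two EC50 values.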

| Structure (SMILES) | Dmax [%] | DC50 [nM] | DC50 (read-out: DC50) [nM] |
| --- | --- | --- | --- |
| Cn1c(=O)n(C2CCC(=O)NC2=O)c2cccc(N3CCN(C4CCN(C[C@H]5CC[C@H](n6cc(-n7cc(-c8ccc9cc(C(N)=O)cnn89)nn7)c(C(F)F)n6)CC5)CC4)CC3)c21 (some centres unmarked) [Example 71] | > 80 | < 0.5 | – |
| Cn1c(=O)n(C2CCC(=O)NC2=O)c2cccc(N3CCN(C[C@H]4CC[C@H](n5cc(-n6cc(-c7cnn8ccc(N[C@@H]9CCCC[C@@H]9O)nc78)nn6)c(C(F)F)n5)CC4)CC3)c21 (some centres unmarked) [Example 268] | 70 to 80 | 0.5 to 1 | – |
| Cn1c(=O)n(C2CCC(=O)NC2=O)c2cccc(N3CCN(C[C@H]4CC[C@H](n5cc(-n6cc(-c7cnn8ccc(N9CCC(C)(O)CC9)nc78)nn6)c(C(F)F)n5)CC4)CC3)c21 (some centres unmarked) [Compound 235] | > 80 | – | < 0.5 |
| C[C@H]1CN(c2cccc3c2n(C)c(=O)n3C2CCC(=O)NC2=O)CCN1C[C@H]1CC[C@H](n2cc(-n3cc(-c4cnn5ccc(N6CCOCC6)nc45)nn3)c(C(F)F)n2)CC1 (some centres unmarked) [Example 52] | 70 to 80 | 0.5 to 1 | – |
| Cn1c(=O)n(C2CCC(=O)NC2=O)c2cccc(N3CCN(C4CCN(C[C@H]5CC[C@H](n6cc(-n7cc(-c8cnn9ccc(N[C@H]%10CCCC[C@H]%10O)nc89)nn7)c(C(F)F)n6)CC5)CC4)CC3)c21 (some centres unmarked) [Example 149] | > 80 | < 0.5 | – |
| CN1CCN(c2ccn3ncc(-c4cn(-c5cn([C@H]6CC[C@H](CN7CCN(c8cccc9c8n(C)c(=O)n9C8CCC(=O)NC8=O)CC7)CC6)nc5C(F)F)nn4)c3n2)CC1 (some centres unmarked) [Compound 227] | 60 to 70 | – | 1 to 5 |
| Cn1c(=O)n(C2CCC(=O)NC2=O)c2cccc(N3CCN(C4CCN(C[C@H]5CC[C@H](n6cc(-n7cc(-c8cnn9ccc(N%10CCC[C@H](N)C%10)nc89)nn7)c(C(F)F)n6)CC5)CC4)CC3)c21 (stereo partly drawn) [Example 117, 3-{4-[4-(1-{[(1S,4r)-4-[3-(difluoromethyl)-4-(4-{5-[(3S)-3-aminohexahydropyridin-1-yl]pyrazolo[1,5-a]pyrimidin-3-yl}-1,2,3-triazol-1-yl)pyrazol-1-yl]cyclohexyl]methyl}hexahydropyridin-4-yl)piperazin-1-yl]-3-methyl-2-oxobenzo[d]imidazol-1-yl}hexahydropyridine-2,6-dione hydrochloride] | > 80 | 1 to 5 | – |
| Cn1c(=O)n(C2CCC(=O)NC2=O)c2cccc(NCC3CC4(CCN(C[C@H]5CC[C@H](n6cc(-n7cc(-c8cnn9ccc(N%10CCOCC%10)nc89)nn7)c(C(F)F)n6)CC5)CC4)C3)c21 (some centres unmarked) [Example 9] | < 60 | < 0.5 | – |
| Cn1c(=O)n(C2CCC(=O)NC2=O)c2cccc(N3CCN(C4CCN(C[C@H]5CC[C@H](n6cc(-n7cc(-c8cnn9ccc(NCCC(C)(C)O)nc89)nn7)c(C(F)F)n6)CC5)CC4)CC3)c21 (some centres unmarked) [Example 133] | > 80 | < 0.5 | – |
| Cn1c(=O)n(C2CCC(=O)NC2=O)c2cccc(NC(=O)CN3CCN(C[C@H]4CC[C@H](n5cc(-n6cc(-n7ccc8cc(C(N)=O)cnc87)nn6)c(C(F)F)n5)CC4)CC3)c21 (some centres unmarked) [Example 107, 1-(1-(3-(difluoromethyl)-1-((1r,4r)-4-((4-(2-((1-(2,6-dioxopiperidin-3-yl)-3-methyl-2-oxo-2,3-dihydro-1H-benzo[d]imidazol-4-yl)amino)-2-oxoethyl)piperazin-1-yl)methyl)cyclohexyl)-1H-pyrazol-4-yl)-1H - 1,2,3-triazol-4-yl)-1H-pyrrolo[2,3-b]pyridine-5-carboxamide] | > 80 | 1 to 5 | – |
| Cn1c(=O)n(C2CCC(=O)NC2=O)c2cccc(CCCN3CCOC(CNCC4CCC(n5cc(-n6cc(-c7cnn8ccc(N9CCOCC9)nc78)nn6)c(C(F)F)n5)CC4)C3)c21 [Example 2, 3-(4-(3-((S)-2-((((4-(-3-(difluoromethyl)-4-(4-(5-morpholinopyrazolo [1,5-a]pyrimidin-3-yl)-1H-1,2,3-triazol-1-yl)-1H-pyrazol-1-ylcyclohexyl)methyl)amino)methyl)morpholinyl)propyl)-3-methyl-2-oxo-2,3-dihydro-1H-benzo[d]imidazol-1-yl)piperidine-2,6-dione] | < 60 | < 0.5 | – |
| Cn1c(=O)n(C2CCC(=O)NC2=O)c2cccc(N3CCC(N4CCN(C[C@H]5CC[C@H](n6cc(-n7cc(-c8cnn9cc(C#N)cnc89)nn7)c(C(F)F)n6)CC5)CC4)CC3)c21 (some centres unmarked) [Compound 197] | 60 to 70 | – | 1 to 5 |
| Cn1c(=O)n(C2CCC(=O)NC2=O)c2cccc(N3CCC4(CCN(C[C@H]5CC[C@H](n6cc(-n7cc(-c8cnn9ccc(N%10CCNCC%10)nc89)nn7)c(C(F)F)n6)CC5)CC4)C3)c21 (some centres unmarked) [Example 130, 3-(4-(8-(((1r,4r)-4-(3-(difluoromethyl)-4-(4-(5-(piperazin-1-yl)pyrazolo[1,5-a]pyrimidin-3-yl)-1H-1,2,3-triazol-1-yl)-1H-pyrazol-1-yl)cyclohexyl)methyl)-2,8-diazaspiro[4.5]dec-2-yl)-3-methyl-2-oxo-2,3-dihydro-1H-benzo[d]imidazol-1-yl)piperidine-2,6-dione dihydrochloride] | > 80 | 0.5 to 1 | – |
| C[C@H]1CN(c2cccc3c2n(C)c(=O)n3C2CCC(=O)NC2=O)CCN1C[C@H]1CC[C@H](n2cc(-n3cc(-n4ccc5cc(C(N)=O)cnc54)nn3)c(C(F)F)n2)CC1 (some centres unmarked) [Example 156] | > 80 | < 0.5 | – |
| Cn1c(=O)n(C2CCC(=O)NC2=O)c2cccc(N3CCC4(CCN(C[C@H]5CC[C@H](n6cc(-n7cc(-c8cnn9ccc(N%10CCC(C)(O)CC%10)nc89)nn7)c(C(F)F)n6)CC5)CC4)CC3)c21 (some centres unmarked) [Example 121] | > 80 | < 0.5 | – |
| Cn1c(=O)n(C2CCC(=O)NC2=O)c2cccc(N3CCC4(CCN(C[C@H]5CC[C@H](n6cc(-n7cc(-c8cnn9cc(C#N)cnc89)nn7)c(C(F)F)n6)CC5)C4)CC3)c21 (some centres unmarked) [Compound 189] | 60 to 70 | – | 0.5 to 1 |
| Cn1c(=O)n(C2CCC(=O)NC2=O)c2cccc(CN3CCC4(CC3)CC(NC[C@H]3CC[C@H](n5cc(-n6cc(-c7cnn8ccc(N9CCOCC9)nc78)nn6)c(C(F)F)n5)CC3)C4)c21 (some centres unmarked) [Example 4] | > 80 | < 0.5 | – |
| Cn1c(=O)n(C2CCC(=O)NC2=O)c2cccc(N3CCC(N4CCN(C[C@H]5CC[C@H](n6cc(-n7cc(-c8cnn9ccc(NCC%10CC%10)nc89)nn7)c(C(F)F)n6)CC5)CC4)CC3)c21 (some centres unmarked) [Example 114] | > 80 | < 0.5 | – |
| Cn1c(=O)n(C2CCC(=O)NC2=O)c2cccc(NC[C@H]3CC[C@@H](N(C)C[C@H]4CC[C@H](n5cc(-n6cc(-c7cnn8ccc(N9CCOCC9)nc78)nn6)c(C(F)F)n5)CC4)CC3)c21 (stereo partly drawn) [Example 21, 3-(4-((((1S,4s)-4-((((1r,4R)-4-(3-(difluoromethyl)-4-(4-(5-morpholinopyrazolo[1,5-a]pyrimidin-3-yl)-1H-1,2,3-triazol-1-yl)-1H-pyrazol-1-yl)cyclohexyl)methyl)(methyl)amino)cyclohexyl)methyl)amino)-3-methyl-2-oxo-2,3-dihydro-1H-benzo[d]imidazol-1-yl)piperidine-2,6-dione] | < 60 | < 0.5 | – |
| Cn1c(=O)n(C2CCC(=O)NC2=O)c2cccc(N3CCC4(CC3)CN(C[C@H]3CC[C@H](n5cc(-n6cc(-c7cnn8ccc(N9CCOCC9)nc78)nn6)c(C(F)F)n5)CC3)CCO4)c21 (some centres unmarked) [Example 41] | 70 to 80 | 1 to 5 | – |
| Cn1c(=O)n(C2CCC(=O)NC2=O)c2cccc(CCC(=O)N3CCC4(CC3)CN(C[C@H]3CC[C@H](n5cc(-n6cc(-c7cnn8ccc(N9CCOCC9)nc78)nn6)c(C(F)F)n5)CC3)C4)c21 (some centres unmarked) [Example 16] | 60 to 70 | < 0.5 | – |
| Cn1c(=O)n(C2CCC(=O)NC2=O)c2cccc(N3CC4(CCN(C[C@H]5CC[C@H](n6cc(-n7cc(-n8ccc9cc(C(N)=O)cnc98)nn7)c(C(F)F)n6)CC5)CC4)C3)c21 (some centres unmarked) [Example 105, 1-(1-(3-(difluoromethyl)-1-((1r,4r)-4-((2-(1-(2,6-dioxopiperidin-3-yl)-3-methyl-2-oxo-2,3-dihydro-1H-benzo[d]imidazol-4-yl)-2,7-diazaspiro[3.5]non-7-yl)methyl)cyclohexyl)-1H-pyrazol-4-yl)-1H-1,2,3-triazol-4-yl)-1H-pyrrolo[2,3-b]pyridine-5-carboxamide] | > 80 | < 0.5 | – |
| Cn1c(=O)n(C2CCC(=O)NC2=O)c2cccc(C#CC3(O)CN(C[C@H]4CC[C@H](n5cc(-n6cc(-c7ccc8cc(C(N)=O)cnn78)nn6)c(C(F)F)n5)CC4)C3)c21 (some centres unmarked) [Example 19] | 70 to 80 | 0.5 to 1 | – |
| Cn1c(=O)n(C2CCC(=O)NC2=O)c2cccc(N3CCC4(CCN(C[C@H]5CC[C@H](n6cc(-n7cc(-c8cnn9ccc(N%10CCS(=O)(=O)CC%10)nc89)nn7)c(C(F)F)n6)CC5)CC4)CC3)c21 (some centres unmarked) [Example 112] | > 80 | < 0.5 | – |
| Cn1c(=O)n(C2CCC(=O)NC2=O)c2cccc(CN3CCC4(CC3)CN(C[C@H]3CC[C@H](n5cc(-n6cc(-c7cnn8ccc(N9CCOCC9)nc78)nn6)c(C(F)F)n5)CC3)CCO4)c21 (some centres unmarked) [Example 5] | < 60 | < 0.5 | – |
